Reference: ChEMBL document CHEMBL1133286, “5-HETE congeners as modulators of cell proliferation” (2000)

What follows are compounds tested on LNCaP (assay: Evaluated for its growth enhancement or mitogenic activity using LNCaP prostate cultures). Conditions: not given.
Assay type: functional, Homo sapiens, Prostate gland
Compound `CCCCC/C=C\C/C=C\C/C=C\C=C\C(O)CCCC(=O)NOC` (stereo not given) has a Control of 133%. Work on `CCCCC/C=C\C/C=C\C/C=C\C=C\C(O)CCCC(=O)c1cnccn1` (stereo not given) yielded a Control of 113%. Work on `CCCCC/C=C\C/C=C\C/C=C\C=C\C(O)CCCC(=O)NN` (stereo not given) yielded a Control of 60%. `CCCCC/C=C\C/C=C\C/C=C\C=C\C(CCCC(=O)O)NC` (stereo not given) gave a Control of 125%. `CCCCC/C=C\C/C=C\C/C=C\C=C\C(O)CCCC(=O)NCCCN` (stereo not given) gave a Control of 116%. Work on `CCCCC/C=C\C/C=C\C/C=C\C=C\C1CCCC(=O)N1` (stereo not given) yielded a Control of 121%. Compound `CCCCC/C=C\C/C=C\C/C=C\C=C\C(O)CCCC(=O)N1CCCCC1` (stereo not given) has a Control of 123%. Compound `CCCCC/C=C\C/C=C\C/C=C\C=C\C(O)CCCC(=O)NCCO` (stereo not given) has a Control of 125%. For `CCCCC/C=C\C/C=C\C/C=C\C=C\C(O)CCCC(N)=O` (stereo not given), the Control was 108%. With `CCCCC/C=C\C/C=C\C/C=C\C=C\C(O)CCCC(=O)NO` (stereo not given) the Control was 3%. `CCCCC/C=C\C/C=C\C/C=C\C=C\C(O)CCCC(=O)N(C)C` (stereo not given) gave a Control of 138%. Work on `CCCCC/C=C\C/C=C\C/C=C\C=C\C(O)CCCC(=O)N(C)OC` (stereo not given) yielded a Control of 115%. For `CCCCC/C=C\C/C=C\C/C=C\C=C\C(O)CCCC(=O)N1CCOCC1` (stereo not given), the Control was 106%. With `CCCCC/C=C\C/C=C\C/C=C\C=C\C(N)CCCC(=O)O` (stereo not given) the Control was 116%. In the case of `CCCCC/C=C\C/C=C\C/C=C\C=C\C(O)CCCC(=O)NC` (stereo not given), the Control was 108%. For `CCCCC/C=C\C/C=C\C/C=C\C=C\C(O)CCCC(=O)O` (stereo not given), the Control was 116%. `CCCCC/C=C\C/C=C\C/C=C\C=C\C1CCCC(=O)N1C` (stereo not given) gave a Control of 131%. `CCCCC/C=C\C/C=C\C/C=C\C=C\C(O)CCCC(=O)OC` (stereo not given) was tested, and the Control was 111%. With `CCCCC/C=C\C/C=C\C/C=C\C/C=C\CCCC(=O)NCCO` [ANANDAMIDE] the Control was 112%.

What follows are compounds tested on LNCaP (assay: Evaluated for its growth enhancement or mitogenic activity using LNCaP prostate cultures.). Conditions: Homo sapiens, Prostate gland.
Assay type: functional, cell-based
With `CCCCCCCC/C=C\CCCCCCCC(=O)NCCO` the Control was “No effect”.
